Legend:
Assay in all cases: relative viability (nuclei count vs DMSO), 5 days (fraction); higher = more cells survive
ABC-1 = system: ABC-1
Procedure, shortened: (§1)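 Lung cancer cell lines, seeded in 1536-well plates, were treated the following day by pin tool with a single drug or with five library-drug doses (not always all listed) in √10 steps on top of a fixed anchor-drug dose. Cells were fixed and nuclei stained in one step after 5 days, and nuclei were counted. Relative viability is the nuclei count for treated wells divided by that for vehicle wells, reported as medians of duplicate plates.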

BEN = system: BEN
Procedure, shortened: as §1

EPLC-272H = system: EPLC-272H
Procedure, shortened: as §1

HCC-827 = system: HCC-827
Procedure, shortened: as §1

HOP-62 = system: HOP-62
Procedure, shortened: as §1

LU99A = system: LU99A
Procedure, shortened: as §1

NCI-H1355 = system: NCI-H1355
Procedure, shortened: as §1

NCI-H1666 = system: NCI-H1666
Procedure, shortened: as §1

NCI-H1792 = system: NCI-H1792
Procedure, shortened: as §1

NCI-H1975 = system: NCI-H1975
Procedure, shortened: as §1

NCI-H2170 = system: NCI-H2170
Procedure, shortened: as §1

NCI-H23 = system: NCI-H23
Procedure, shortened: as §1

NCI-H2405 = system: NCI-H2405
Procedure, shortened: as §1

NCI-H3122 = system: NCI-H3122
Procedure, shortened: as §1

NCI-H322M = system: NCI-H322M
Procedure, shortened: as §1

NCI-H358 = system: NCI-H358
Procedure, shortened: as §1

NCI-H520 = system: NCI-H520
Procedure, shortened: as §1

NCI-H596 = system: NCI-H596
Procedure, shortened: as §1

NCI-H647 = system: NCI-H647
Procedure, shortened: as §1

NCI-H727 = system: NCI-H727
Procedure, shortened: as §1

NCI-H838 = system: NCI-H838
Procedure, shortened: as §1

PC-14 = system: PC-14
Procedure, shortened: as §1

UMC-11 = system: UMC-11
Procedure, shortened: as §1

Structure (SMILES): O=c1[nH]c2ccccc2n1C1CCN(CCCC(c2ccc(F)cc2)c2ccc(F)cc2)CC1 [Pimozide] + Cc1nc(NC(=O)N2CCC[C@H]2C(N)=O)sc1-c1ccnc(C(C)(C)C(F)(F)F)c1 [Alpelisib] (partner 2 µM)
- relative viability (ABC-1; first compound 0.08 µM): 0.915
- relative viability (ABC-1; first compound 0.253 µM): 1.03
- relative viability (ABC-1; first compound 0.8 µM): 0.834
- relative viability (ABC-1; first compound 2.53 µM): 0.842
- relative viability (ABC-1; first compound 8 µM): 0.675
- relative viability (BEN; first compound 0.08 µM): 1.08
- relative viability (BEN; first compound 0.253 µM): 1.09
- relative viability (BEN; first compound 0.8 µM): 0.961
- relative viability (BEN; first compound 2.53 µM): 0.937
- relative viability (BEN; first compound 8 µM): 1.06
- relative viability (EPLC-272H; first compound 0.08 µM): 0.838
- relative viability (EPLC-272H; first compound 0.253 µM): 0.962
- relative viability (EPLC-272H; first compound 0.8 µM): 0.894
- relative viability (EPLC-272H; first compound 2.53 µM): 0.912
- relative viability (EPLC-272H; first compound 8 µM): 0.771
- relative viability (HCC-827; first compound 0.253 µM): 0.92
- relative viability (HCC-827; first compound 0.8 µM): 0.956
- relative viability (HCC-827; first compound 2.53 µM): 0.95
- relative viability (HCC-827; first compound 8 µM): 1
- relative viability (HOP-62; first compound 0.08 µM): 1.2
- relative viability (HOP-62; first compound 0.253 µM): 0.783
- relative viability (HOP-62; first compound 2.53 µM): 0.904
- relative viability (HOP-62; first compound 8 µM): 0.794
- relative viability (LU99A; first compound 0.08 µM): 0.397
- relative viability (LU99A; first compound 0.253 µM): 0.424
- relative viability (LU99A; first compound 0.8 µM): 0.42
- relative viability (LU99A; first compound 2.53 µM): 0.484
- relative viability (LU99A; first compound 8 µM): 0.477
- relative viability (NCI-H1355; first compound 0.08 µM): 0.81
- relative viability (NCI-H1355; first compound 0.253 µM): 0.873
- relative viability (NCI-H1355; first compound 0.8 µM): 0.811
- relative viability (NCI-H1355; first compound 2.53 µM): 0.662
- relative viability (NCI-H1355; first compound 8 µM): 0.817
- relative viability (NCI-H1666; first compound 0.08 µM): 0.948
- relative viability (NCI-H1666; first compound 0.253 µM): 1.01
- relative viability (NCI-H1666; first compound 0.8 µM): 0.886
- relative viability (NCI-H1666; first compound 2.53 µM): 0.874
- relative viability (NCI-H1666; first compound 8 µM): 0.728
- relative viability (NCI-H1792; first compound 0.08 µM): 0.874
- relative viability (NCI-H1792; first compound 0.253 µM): 0.661
- relative viability (NCI-H1792; first compound 0.8 µM): 0.668
- relative viability (NCI-H1792; first compound 2.53 µM): 0.575
- relative viability (NCI-H1792; first compound 8 µM): 0.836
- relative viability (NCI-H1975; first compound 0.08 µM): 0.64
- relative viability (NCI-H1975; first compound 0.253 µM): 0.715
- relative viability (NCI-H1975; first compound 0.8 µM): 0.606
- relative viability (NCI-H1975; first compound 2.53 µM): 0.602
- relative viability (NCI-H1975; first compound 8 µM): 0.535
- relative viability (NCI-H2170; first compound 0.08 µM): 0.753
- relative viability (NCI-H2170; first compound 0.253 µM): 0.792
- relative viability (NCI-H2170; first compound 0.8 µM): 0.822
- relative viability (NCI-H2170; first compound 2.53 µM): 0.74
- relative viability (NCI-H2170; first compound 8 µM): 0.714
- relative viability (NCI-H23; first compound 0.08 µM): 0.577
- relative viability (NCI-H23; first compound 0.253 µM): 0.575
- relative viability (NCI-H23; first compound 0.8 µM): 0.718
- relative viability (NCI-H23; first compound 2.53 µM): 0.68
- relative viability (NCI-H23; first compound 8 µM): 0.745
- relative viability (NCI-H2405; first compound 0.08 µM): 0.782
- relative viability (NCI-H2405; first compound 0.253 µM): 0.622
- relative viability (NCI-H2405; first compound 0.8 µM): 0.684
- relative viability (NCI-H2405; first compound 2.53 µM): 0.741
- relative viability (NCI-H2405; first compound 8 µM): 0.61
- relative viability (NCI-H3122; first compound 0.08 µM): 0.833
- relative viability (NCI-H3122; first compound 0.253 µM): 0.784
- relative viability (NCI-H3122; first compound 0.8 µM): 0.784
- relative viability (NCI-H3122; first compound 2.53 µM): 0.784
- relative viability (NCI-H3122; first compound 8 µM): 0.795
- relative viability (NCI-H322M; first compound 0.253 µM): 0.835
- relative viability (NCI-H322M; first compound 0.8 µM): 0.819
- relative viability (NCI-H322M; first compound 2.53 µM): 0.695
- relative viability (NCI-H322M; first compound 8 µM): 0.716
- relative viability (NCI-H358; first compound 0.08 µM): 0.761
- relative viability (NCI-H358; first compound 0.253 µM): 0.775
- relative viability (NCI-H358; first compound 0.8 µM): 0.786
- relative viability (NCI-H358; first compound 2.53 µM): 0.808
- relative viability (NCI-H358; first compound 8 µM): 0.852
- relative viability (NCI-H520; first compound 0.08 µM): 1.03
- relative viability (NCI-H520; first compound 0.253 µM): 0.88
- relative viability (NCI-H520; first compound 0.8 µM): 0.992
- relative viability (NCI-H520; first compound 2.53 µM): 0.947
- relative viability (NCI-H520; first compound 8 µM): 0.832
- relative viability (NCI-H596; first compound 0.08 µM): 0.481
- relative viability (NCI-H596; first compound 0.253 µM): 0.476
- relative viability (NCI-H596; first compound 0.8 µM): 0.374
- relative viability (NCI-H596; first compound 2.53 µM): 0.481
- relative viability (NCI-H596; first compound 8 µM): 0.392
- relative viability (NCI-H647; first compound 0.08 µM): 1.11
- relative viability (NCI-H647; first compound 0.253 µM): 1.31
- relative viability (NCI-H647; first compound 0.8 µM): 1.11
- relative viability (NCI-H647; first compound 2.53 µM): 1
- relative viability (NCI-H647; first compound 8 µM): 0.554
- relative viability (NCI-H727; first compound 0.08 µM): 0.569
- relative viability (NCI-H727; first compound 0.253 µM): 0.582
- relative viability (NCI-H727; first compound 0.8 µM): 0.729
- relative viability (NCI-H727; first compound 2.53 µM): 0.547
- relative viability (NCI-H727; first compound 8 µM): 0.519
- relative viability (NCI-H838; first compound 0.08 µM): 0.95
- relative viability (NCI-H838; first compound 0.253 µM): 0.98
- relative viability (NCI-H838; first compound 0.8 µM): 0.967
- relative viability (NCI-H838; first compound 2.53 µM): 1.03
- relative viability (NCI-H838; first compound 8 µM): 1.04
- relative viability (PC-14; first compound 0.08 µM): 0.606
- relative viability (PC-14; first compound 0.253 µM): 0.911
- relative viability (PC-14; first compound 0.8 µM): 0.928
- relative viability (PC-14; first compound 2.53 µM): 1.05
- relative viability (PC-14; first compound 8 µM): 0.955
- relative viability (UMC-11; first compound 0.08 µM): 1.05
- relative viability (UMC-11; first compound 0.253 µM): 0.967
- relative viability (UMC-11; first compound 0.8 µM): 1.05
- relative viability (UMC-11; first compound 2.53 µM): 1.04
- relative viability (UMC-11; first compound 8 µM): 1.19
